Laboratory results as given in paper PMC9321963 (Birth Defects Research, 2022).
Like-named read-outs stand apart in the source and are kept apart here.

How the values were obtained:
[1] = Toxicokinetics, rat investigative EFD study; type: in vivo; conditions: for Tmax / AUC(0-t) / Cmax: female, rat, plasma, po; for AUC(0-t) / Cmax: rat investigative EFD; for Cmax: C max
[2] = Toxicokinetics, rabbit DRF EFD study; conditions: female, in vivo
[3] = Toxicokinetics, rabbit main EFD study; conditions: female, in vivo
pregnant rats = assay: Rat DRF embryofetal developmental toxicity study; type: in vivo; conditions: rat DRF EFD
pregnant rabbits = assay: Rabbit EFD studies; type: in vivo
TSF1 = TSF1 (Homo sapiens, UniProt O75716); assay: ADP-Glo Kinase Assay, TSF1; type: biochemical
TSF1, sequence (O75716 whole entry): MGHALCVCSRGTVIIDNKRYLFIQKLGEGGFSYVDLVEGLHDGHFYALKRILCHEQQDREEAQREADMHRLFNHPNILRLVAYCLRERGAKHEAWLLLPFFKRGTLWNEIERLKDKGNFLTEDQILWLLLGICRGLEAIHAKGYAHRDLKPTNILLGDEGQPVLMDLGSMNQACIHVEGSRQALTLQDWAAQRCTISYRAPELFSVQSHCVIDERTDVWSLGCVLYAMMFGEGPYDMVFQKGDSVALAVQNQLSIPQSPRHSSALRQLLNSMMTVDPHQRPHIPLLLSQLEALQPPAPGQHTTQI

AhR = biological target: T1, AhR (Homo sapiens, UniProt P35869); assay: In vitro off-target inhibition, AhR
T1 sequence (P35869 11-848): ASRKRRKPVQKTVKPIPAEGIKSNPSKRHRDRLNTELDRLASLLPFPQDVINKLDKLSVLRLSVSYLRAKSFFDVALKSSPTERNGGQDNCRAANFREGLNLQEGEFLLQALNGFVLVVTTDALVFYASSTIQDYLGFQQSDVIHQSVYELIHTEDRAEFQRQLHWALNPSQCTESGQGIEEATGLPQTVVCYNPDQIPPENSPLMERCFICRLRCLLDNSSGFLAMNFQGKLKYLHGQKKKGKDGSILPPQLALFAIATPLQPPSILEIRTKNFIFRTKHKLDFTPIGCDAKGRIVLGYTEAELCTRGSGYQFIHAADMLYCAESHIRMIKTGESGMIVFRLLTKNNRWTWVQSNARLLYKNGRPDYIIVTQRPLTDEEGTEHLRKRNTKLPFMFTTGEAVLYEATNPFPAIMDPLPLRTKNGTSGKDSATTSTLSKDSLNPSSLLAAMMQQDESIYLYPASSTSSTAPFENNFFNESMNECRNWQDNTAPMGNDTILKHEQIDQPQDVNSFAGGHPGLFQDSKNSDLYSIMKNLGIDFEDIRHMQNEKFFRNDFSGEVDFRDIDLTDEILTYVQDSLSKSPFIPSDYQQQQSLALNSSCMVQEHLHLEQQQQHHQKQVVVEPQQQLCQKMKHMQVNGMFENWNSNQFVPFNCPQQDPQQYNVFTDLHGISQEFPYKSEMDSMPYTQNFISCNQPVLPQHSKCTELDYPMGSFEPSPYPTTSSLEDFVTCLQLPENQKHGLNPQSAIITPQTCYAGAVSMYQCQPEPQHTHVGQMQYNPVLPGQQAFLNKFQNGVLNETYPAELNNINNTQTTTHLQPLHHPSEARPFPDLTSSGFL

PI3Kδ = PI3Kδ (Homo sapiens, UniProt O00329); assay: ADP-Glo Kinase Assay, PI3Kδ; type: biochemical
PI3Kδ, sequence (O00329 whole entry): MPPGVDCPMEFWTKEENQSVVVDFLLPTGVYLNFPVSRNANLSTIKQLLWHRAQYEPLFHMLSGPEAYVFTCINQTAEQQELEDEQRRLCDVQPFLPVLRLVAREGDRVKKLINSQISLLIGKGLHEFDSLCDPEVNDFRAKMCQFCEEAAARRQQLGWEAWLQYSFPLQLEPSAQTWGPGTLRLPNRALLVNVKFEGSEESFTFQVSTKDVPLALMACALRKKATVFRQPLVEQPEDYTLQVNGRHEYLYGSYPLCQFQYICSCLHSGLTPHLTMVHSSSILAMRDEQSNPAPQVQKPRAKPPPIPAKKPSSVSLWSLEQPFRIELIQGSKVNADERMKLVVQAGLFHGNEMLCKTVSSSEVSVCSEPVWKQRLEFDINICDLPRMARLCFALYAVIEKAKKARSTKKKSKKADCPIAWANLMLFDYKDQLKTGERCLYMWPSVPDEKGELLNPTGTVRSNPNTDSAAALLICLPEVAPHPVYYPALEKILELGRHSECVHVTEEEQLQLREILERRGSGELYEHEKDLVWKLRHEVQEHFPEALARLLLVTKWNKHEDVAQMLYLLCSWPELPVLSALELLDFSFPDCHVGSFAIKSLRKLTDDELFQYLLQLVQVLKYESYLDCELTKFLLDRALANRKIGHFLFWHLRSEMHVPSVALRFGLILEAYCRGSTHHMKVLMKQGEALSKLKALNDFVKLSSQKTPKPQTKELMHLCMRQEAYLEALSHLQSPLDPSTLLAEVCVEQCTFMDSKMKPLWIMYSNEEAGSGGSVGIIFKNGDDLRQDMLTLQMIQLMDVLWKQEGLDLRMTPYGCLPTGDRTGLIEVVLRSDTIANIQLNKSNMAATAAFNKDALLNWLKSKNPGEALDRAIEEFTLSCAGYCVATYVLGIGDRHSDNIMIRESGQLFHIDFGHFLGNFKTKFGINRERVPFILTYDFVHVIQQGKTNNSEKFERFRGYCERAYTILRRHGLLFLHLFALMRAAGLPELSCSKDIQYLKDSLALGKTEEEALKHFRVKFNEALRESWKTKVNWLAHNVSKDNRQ
PI3Kδ, sequence (P27986 whole entry partner): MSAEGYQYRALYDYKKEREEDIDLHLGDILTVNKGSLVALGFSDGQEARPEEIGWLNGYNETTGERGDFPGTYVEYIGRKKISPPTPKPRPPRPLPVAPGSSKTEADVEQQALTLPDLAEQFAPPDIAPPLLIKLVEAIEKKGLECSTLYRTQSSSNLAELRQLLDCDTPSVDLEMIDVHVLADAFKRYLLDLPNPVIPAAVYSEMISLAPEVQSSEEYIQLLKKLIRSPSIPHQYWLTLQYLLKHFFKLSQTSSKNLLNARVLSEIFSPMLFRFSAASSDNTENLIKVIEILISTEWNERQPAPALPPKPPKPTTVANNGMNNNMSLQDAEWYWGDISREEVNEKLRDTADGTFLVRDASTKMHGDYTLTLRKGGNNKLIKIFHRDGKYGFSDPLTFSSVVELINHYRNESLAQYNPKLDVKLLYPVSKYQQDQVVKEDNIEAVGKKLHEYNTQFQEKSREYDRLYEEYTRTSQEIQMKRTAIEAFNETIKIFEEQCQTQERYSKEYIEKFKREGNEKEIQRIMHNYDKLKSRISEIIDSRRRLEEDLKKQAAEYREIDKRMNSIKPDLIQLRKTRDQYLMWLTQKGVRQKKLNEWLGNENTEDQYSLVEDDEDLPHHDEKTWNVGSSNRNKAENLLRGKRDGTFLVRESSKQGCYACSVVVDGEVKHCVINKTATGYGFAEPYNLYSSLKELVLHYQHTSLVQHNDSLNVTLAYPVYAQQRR

[4] = human, male, ref McCarthy et al. ([2020]), cited from earlier work
[5] = Sprague-Dawley (Crl: OFA SD), 40 mg/kg/day, 40 mg/kg/day oral, GD6
[6] = Sprague-Dawley (Crl: OFA SD), 40 mg/kg/day, 40 mg/kg/day oral, GD17
[7] = Sprague-Dawley, 20 mg/kg/day, 20 mg/kg/day oral, GD6
[8] = Sprague-Dawley, 20 mg/kg/day, 20 mg/kg/day oral, GD17

CS(=O)(=O)c1ccc(-c2cnc(N)c(-c3ccc(C(F)(F)F)nc3)c2)cc1 [MMV390048]
Tmax ([1]; Sprague-Dawley (Crl: OFA SD), 40 mg/kg/day): 7 h
AUC(0-t) [1, 5]: 213000 ng·h/mL
AUC(0-t) [1, 6]: 310000 ng·h/mL
Cmax [1, 5]: 11300 ng/mL
Cmax [1, 6]: 17100 ng/mL
Tmax ([1]; Sprague-Dawley, 20 mg/kg/day): 7 h
AUC(0-t) [1, 7]: 92900 ng·h/mL
AUC(0-t) [1, 8]: 134000 ng·h/mL
Cmax [1, 7]: 5230 ng/mL
Cmax [1, 8]: 7550 ng/mL
Maximum exposure (free) ([1]; rat investigational EFD CRL, GD17, 40 mg/kg, 7 hr post dose): 6.5 μM/L
AUC(0-t) ([2]; 1 mg/kg/day): 3750 ng·h/mL
Cmax ([2]; 1 mg/kg/day): 267 ng/mL
Tmax ([2]; 1 mg/kg/day): 2 h
AUC(0-t) ([2]; 3 mg/kg/day): 14900 ng·h/mL
Cmax ([2]; 3 mg/kg/day): 857 ng/mL
Tmax ([2]; 3 mg/kg/day): 4 h
AUC(0-t) ([2]; 10 mg/kg/day): 64500 ng·h/mL
Cmax ([2]; 10 mg/kg/day): 3790 ng/mL
Tmax ([2]; 10 mg/kg/day): 4 h
AUC(0-t) ([3]; 1 mg/kg/day): 4090 ng·h/mL
Cmax ([3]; 1 mg/kg/day): 250 ng/mL
Tmax ([3]; 1 mg/kg/day): 4 h
AUC(0-t) ([3]; 3 mg/kg/day): 13600 ng·h/mL
Cmax ([3]; 3 mg/kg/day): 894 ng/mL
Tmax ([3]; 3 mg/kg/day): 2 h
AUC(0-t) ([3]; 10 mg/kg/day): 53300 ng·h/mL
Cmax ([3]; 10 mg/kg/day): 3410 ng/mL
Tmax ([3]; 10 mg/kg/day): 2 h
Female with viable fetuses (pregnant rats; 3 mg/kg/day GD6-GD17): 8/8
Postimplantation loss (%) (pregnant rats; 3 mg/kg/day GD6-GD17): 5.1%
Female with viable fetuses (pregnant rats; 10 mg/kg/day GD6-GD17): 8/8
Fetal BW % from CTL (pregnant rats; 10 mg/kg/day GD6-GD17): −2%
Postimplantation loss (%) (pregnant rats; 10 mg/kg/day GD6-GD17): 1.7%
Female with viable fetuses (pregnant rats; 30 mg/kg/day GD6-GD17): 7/7
Fetal BW % from CTL (pregnant rats; 30 mg/kg/day GD6-GD17): −5%
Heart VSD, fetuses with malformation/total fetuses examined (pregnant rats; 30 mg/kg/day GD6-GD17): 1/43
Heart VSD, litters with malformation/total litters examined (pregnant rats; 30 mg/kg/day GD6-GD17): 1/7
Postimplantation loss (%) (pregnant rats; 30 mg/kg/day GD6-GD17): 5.9%
Treatment‐related skeletal malformations (pregnant rats; 60 mg/kg/day): fused rib, short rib, split sternebra, and fused cervical arch
VSD, number of fetuses (pregnant rats; 60 mg/kg/day): 3 fetuses
VSD, number of litters (pregnant rats; 60 mg/kg/day): 3 litters
hernia of the diaphragm, number of fetuses (pregnant rats; 60 mg/kg/day): 12 fetuses
hernia of the diaphragm, number of litters (pregnant rats; 60 mg/kg/day): 3 litters
Blood vessels IAA, fetuses with malformation/total fetuses examined (pregnant rats; 60 mg/kg/day GD6-GD17): 1/40
Blood vessels IAA, litters with malformation/total litters examined (pregnant rats; 60 mg/kg/day GD6-GD17): 1/8
Female with viable fetuses (pregnant rats; 60 mg/kg/day GD6-GD17): 8/8
Fetal BW % from CTL (pregnant rats; 60 mg/kg/day GD6-GD17): −16%
Heart VSD, fetuses with malformation/total fetuses examined (pregnant rats; 60 mg/kg/day GD6-GD17): 7/40
Heart VSD, litters with malformation/total litters examined (pregnant rats; 60 mg/kg/day GD6-GD17): 3/8
Hernias, fetuses with malformation/total fetuses examined (pregnant rats; 60 mg/kg/day GD6-GD17): 12/40
Hernias, litters with malformation/total litters examined (pregnant rats; 60 mg/kg/day GD6-GD17): 3/8
Postimplantation loss (%) (pregnant rats; 60 mg/kg/day GD6-GD17): 21.9%
litter size (pregnant rats; 60 mg/kg/day, 14 in the control group): 10.6
embryofetal developmental toxicity signals (pregnant rabbits): no signals of concern
IC50 (TSF1): 7.3 µM
IC50 (AhR): 7.9 µM
IC50 (PI3Kδ): 8.1 µM
AUC(0−inf) ([4]; dose 40 mg): 30,320 hr*ng/ml
C max ([4]; dose 40 mg): 272.7 ng/mL
T max ([4]; dose 40 mg): 1.5 h
AUC(0−inf) ([4]; dose 80 mg): 82,680 hr*ng/ml
C max ([4]; dose 80 mg): 561 ng/mL
AUC(0−inf) ([4]; dose 120 mg): 137,800 hr*ng/ml
C max ([4]; dose 120 mg): 1,094 ng/ml
T max ([4]; dose 120 mg): 1 h
